Measured values reported in ChEMBL document CHEMBL4308841, “Synthesis, in vitro antiproliferative activity, and kinase inhibitory effects of pyrazole-containing diarylureas and diarylamides” (Eur J Med Chem, 2018).

Tests used:
Format in all cases: functional
CCRF-CEM = experiment: Growth inhibition of human CCRF-CEM cells assessed as cell growth at 10 uM incubated for 48 hrs by sulforhodamine B assay relative to control; details: read-out: Activity
K562 = experiment: Growth inhibition of human K562 cells assessed as cell growth at 10 uM incubated for 48 hrs by sulforhodamine B assay relative to control; details: K562, 48 h, read-out: Activity
MOLT-4 = experiment: Growth inhibition of human MOLT4 cells assessed as cell growth at 10 uM incubated for 48 hrs by sulforhodamine B assay relative to control; details: MOLT-4, 48 h, read-out: Activity
RPMI-8226 = experiment: Growth inhibition of human RPMI8226 cells assessed as cell growth at 10 uM incubated for 48 hrs by sulforhodamine B assay relative to control; details: RPMI-8226, 48 h, read-out: Activity
SR = experiment: Growth inhibition of human SR cells assessed as cell growth at 10 uM incubated for 48 hrs by sulforhodamine B assay relative to control; details: read-out: Activity
HOP-62 = experiment: Growth inhibition of human HOP62 cells assessed as cell growth at 10 uM incubated for 48 hrs by sulforhodamine B assay relative to control; details: HOP-62, 48 h, read-out: Activity
NCI-H226 = experiment: Growth inhibition of human NCI-H226 cells assessed as cell growth at 10 uM incubated for 48 hrs by sulforhodamine B assay relative to control; details: NCI-H226, 48 h, read-out: Activity
NCI-H322M = experiment: Growth inhibition of human NCI-H322M cells assessed as cell growth at 10 uM incubated for 48 hrs by sulforhodamine B assay relative to control; details: read-out: Activity
NCI-H460 = experiment: Growth inhibition of human NCI-H460 cells assessed as cell growth at 10 uM incubated for 48 hrs by sulforhodamine B assay relative to control; details: NCI-H460, 48 h, read-out: Activity
HCC 2998 = experiment: Growth inhibition of human HCC2998 cells assessed as cell growth at 10 uM incubated for 48 hrs by sulforhodamine B assay relative to control; details: HCC 2998, 48 h, read-out: Activity
HCT-116 = experiment: Growth inhibition of human HCT116 cells assessed as cell growth at 10 uM incubated for 48 hrs by sulforhodamine B assay relative to control; details: HCT-116, 48 h, read-out: Activity
HCT-15 = experiment: Growth inhibition of human HCT15 cells assessed as cell growth at 10 uM incubated for 48 hrs by sulforhodamine B assay relative to control; details: HCT-15, 48 h, read-out: Activity
SF-295 = experiment: Growth inhibition of human SF295 cells assessed as cell growth at 10 uM incubated for 48 hrs by sulforhodamine B assay relative to control; details: SF-295, 48 h, read-out: Activity
SF-539 = experiment: Growth inhibition of human SF539 cells assessed as cell growth at 10 uM incubated for 48 hrs by sulforhodamine B assay relative to control; details: SF-539, 48 h, read-out: Activity
SNB-75 = experiment: Growth inhibition of human SNB75 cells assessed as cell growth at 10 uM incubated for 48 hrs by sulforhodamine B assay relative to control; details: SNB-75, 48 h, read-out: Activity
U-251 = experiment: Growth inhibition of human U251 cells assessed as cell growth at 10 uM incubated for 48 hrs by sulforhodamine B assay relative to control; details: U-251, 48 h, read-out: Activity
LOX IMVI = experiment: Growth inhibition of human LOXIMVI cells assessed as cell growth at 10 uM incubated for 48 hrs by sulforhodamine B assay relative to control; details: read-out: Activity
MDA-MB-435 = experiment: Growth inhibition of human MDA-MB-435 cells assessed as cell growth at 10 uM incubated for 48 hrs by sulforhodamine B assay relative to control; details: MDA-MB-435, 48 h, read-out: Activity
SK-MEL-5 = experiment: Growth inhibition of human SK-MEL-5 cells assessed as cell growth at 10 uM incubated for 48 hrs by sulforhodamine B assay relative to control; details: SK-MEL-5, 48 h, read-out: Activity
UACC-257 = experiment: Growth inhibition of human UACC257 cells assessed as cell growth at 10 uM incubated for 48 hrs by sulforhodamine B assay relative to control; details: UACC-257, 48 h, read-out: Activity
UACC-62 = experiment: Growth inhibition of human UACC62 cells assessed as cell growth at 10 uM incubated for 48 hrs by sulforhodamine B assay relative to control; details: UACC-62, 48 h, read-out: Activity
IGROV-1 = experiment: Growth inhibition of human IGROV1 cells assessed as cell growth at 10 uM incubated for 48 hrs by sulforhodamine B assay relative to control; details: IGROV-1, 48 h, read-out: Activity
OVCAR-4 = experiment: Growth inhibition of human OVCAR4 cells assessed as cell growth at 10 uM incubated for 48 hrs by sulforhodamine B assay relative to control; details: OVCAR-4, 48 h, read-out: Activity
OVCAR-5 = experiment: Growth inhibition of human OVCAR5 cells assessed as cell growth at 10 uM incubated for 48 hrs by sulforhodamine B assay relative to control; details: OVCAR-5, 48 h, read-out: Activity
OVCAR-8 = experiment: Growth inhibition of human OVCAR8 cells assessed as cell growth at 10 uM incubated for 48 hrs by sulforhodamine B assay relative to control; details: OVCAR-8, 48 h, read-out: Activity
SK-OV-3 = experiment: Growth inhibition of human SKOV3 cells assessed as cell growth at 10 uM incubated for 48 hrs by sulforhodamine B assay relative to control; details: SK-OV-3, 48 h, read-out: Activity
CAKI-1 = experiment: Growth inhibition of human Caki1 cells assessed as cell growth at 10 uM incubated for 48 hrs by sulforhodamine B assay relative to control; details: CAKI-1, 48 h, read-out: Activity
UO-31 = experiment: Growth inhibition of human UO31 cells assessed as cell growth at 10 uM incubated for 48 hrs by sulforhodamine B assay relative to control; details: UO-31, 48 h, read-out: Activity
DU-145 = experiment: Growth inhibition of human DU145 cells assessed as cell growth at 10 uM incubated for 48 hrs by sulforhodamine B assay relative to control; details: DU-145, 48 h, read-out: Activity
MDA-MB-231 = experiment: Growth inhibition of human MDA-MB-231 cells assessed as cell growth at 10 uM incubated for 48 hrs by sulforhodamine B assay relative to control; details: MDA-MB-231, 48 h, read-out: Activity
T47D = experiment: Growth inhibition of human T47D cells assessed as cell growth at 10 uM incubated for 48 hrs by sulforhodamine B assay relative to control; details: read-out: Activity
MDA-MB-468 = experiment: Growth inhibition of human MDA-MB-468 cells assessed as cell growth at 10 uM incubated for 48 hrs by sulforhodamine B assay relative to control; details: MDA-MB-468, 48 h, read-out: Activity

Structure (SMILES) | growth at 10 µM (CCRF-CEM) | growth at 10 µM (K562) | growth at 10 µM (MOLT-4) | growth at 10 µM (RPMI-8226) | growth at 10 µM (SR) | growth at 10 µM (HOP-62) | growth at 10 µM (NCI-H226) | growth at 10 µM (NCI-H322M) | growth at 10 µM (NCI-H460) | growth at 10 µM (HCC 2998) | growth at 10 µM (HCT-116) | growth at 10 µM (HCT-15) | growth at 10 µM (SF-295) | growth at 10 µM (SF-539) | growth at 10 µM (SNB-75) | growth at 10 µM (U-251) | growth at 10 µM (LOX IMVI) | growth at 10 µM (MDA-MB-435) | growth at 10 µM (SK-MEL-5) | growth at 10 µM (UACC-257) | also measured
COc1cc(Cl)cc(-c2nn(-c3cccc(NC(=O)Nc4ccc(Cl)c(Cl)c4)c3)cc2-c2ccncc2)c1 | 5.73% | 10% | -16.1% | -4.44% | -18.4% | 15.7% | 7.27% | 32.3% | 3.1% | 26.7% | 9.22% | 13.9% | -2.42% | 20.9% | 16.2% | 3.01% | 9.24% | 0.46% | 3.51% | -11.4% | growth at 10 µM (UACC-62): 4.38%; growth at 10 µM (IGROV-1): 36.7%; growth at 10 µM (OVCAR-4): 13.3%; growth at 10 µM (OVCAR-5): 37.8%; growth at 10 µM (OVCAR-8): 1.93%; growth at 10 µM (SK-OV-3): 14.2%; growth at 10 µM (CAKI-1): 7.49%; growth at 10 µM (UO-31): 0.64%; growth at 10 µM (DU-145): 12.1%; growth at 10 µM (MDA-MB-231): -21%; growth at 10 µM (T47D): 18.6%; growth at 10 µM (MDA-MB-468): 0.72%
COc1cc(Cl)cc(-c2nn(-c3cccc(NC(=O)Nc4cccc(C(F)(F)F)c4)c3)cc2-c2ccncc2)c1 | 3.34% | 7.61% | -9.16% | -14.2% | -13.5% | 15.5% | 3.94% | 26.2% | -6.11% | 19% | 5.07% | 7.83% | -7.87% | 17% | 12.5% | 4.59% | 4.64% | -20.9% | 5.3% | -11.7% | growth at 10 µM (UACC-62): -11.5%; growth at 10 µM (IGROV-1): 28.9%; growth at 10 µM (OVCAR-4): 3.28%; growth at 10 µM (OVCAR-5): 34.1%; growth at 10 µM (OVCAR-8): -12.3%; growth at 10 µM (SK-OV-3): 14.2%; growth at 10 µM (CAKI-1): 16.1%; growth at 10 µM (UO-31): -4.59%; growth at 10 µM (DU-145): 15.9%; growth at 10 µM (MDA-MB-231): -9.21%; growth at 10 µM (T47D): -0.45%; growth at 10 µM (MDA-MB-468): 6.89%
